Data published in ChEMBL document CHEMBL1132084, “Thrombin inhibitors based on a propargylglycine template” (Bioorg Med Chem Lett, 1999).
pKi: −log10 of the molar value. Blank lines part the entries; values can stand above or below the compound they belong to.

Assays:
Prothrombin = Prothrombin (Homo sapiens, UniProt P00734); assay: Inhibition of human thrombin
[1] = Area under was determined at a dose of 30 mg/kg; assay type: ADME, organism-based; parameters: dose 30 mg/kg; conditions: in vivo
Coagulation factor X = Coagulation factor X (Homo sapiens, UniProt P00742); assay: Inhibitory activity against factor Xa
Chain of Coagulation factor X (P00742 41-179 limits assumed): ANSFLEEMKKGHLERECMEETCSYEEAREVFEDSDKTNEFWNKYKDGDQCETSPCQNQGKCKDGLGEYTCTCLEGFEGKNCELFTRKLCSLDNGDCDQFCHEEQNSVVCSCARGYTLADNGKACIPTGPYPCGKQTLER
Chain of Coagulation factor X (P00742 235-488 limits assumed): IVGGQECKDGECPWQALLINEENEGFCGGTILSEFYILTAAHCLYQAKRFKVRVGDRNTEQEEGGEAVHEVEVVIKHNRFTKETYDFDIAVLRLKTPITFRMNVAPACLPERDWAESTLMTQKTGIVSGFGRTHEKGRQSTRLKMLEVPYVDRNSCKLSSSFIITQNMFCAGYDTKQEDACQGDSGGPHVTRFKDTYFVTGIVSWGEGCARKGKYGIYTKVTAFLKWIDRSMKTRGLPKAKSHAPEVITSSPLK

[2] = target: Tissue-type plasminogen activator (Homo sapiens, UniProt P00750); assay: Inhibitory activity against tissue type plasminogen activator (t-PA)
Chain of Tissue-type plasminogen activator (P00750 whole entry): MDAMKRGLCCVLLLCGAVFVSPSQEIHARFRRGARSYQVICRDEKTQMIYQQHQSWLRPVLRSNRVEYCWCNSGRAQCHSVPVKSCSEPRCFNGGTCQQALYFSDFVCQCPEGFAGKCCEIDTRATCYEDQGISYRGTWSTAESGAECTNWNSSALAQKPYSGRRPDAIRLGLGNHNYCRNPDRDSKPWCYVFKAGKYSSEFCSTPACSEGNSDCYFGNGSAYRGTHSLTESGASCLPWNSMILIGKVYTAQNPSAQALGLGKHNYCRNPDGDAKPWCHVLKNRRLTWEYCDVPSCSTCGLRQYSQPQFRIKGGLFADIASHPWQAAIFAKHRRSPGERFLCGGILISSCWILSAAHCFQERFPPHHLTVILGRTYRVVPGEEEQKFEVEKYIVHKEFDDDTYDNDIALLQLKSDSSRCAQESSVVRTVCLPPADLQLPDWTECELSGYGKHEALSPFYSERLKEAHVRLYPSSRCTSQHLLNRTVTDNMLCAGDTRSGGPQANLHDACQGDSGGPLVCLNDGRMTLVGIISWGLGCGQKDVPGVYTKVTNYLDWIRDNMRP

Serine protease 1 = target: T1, Serine protease 1 (Bos taurus, UniProt P00760); assay: Inhibitory activity against bovine trypsin
T1 sequence (P00760 whole entry): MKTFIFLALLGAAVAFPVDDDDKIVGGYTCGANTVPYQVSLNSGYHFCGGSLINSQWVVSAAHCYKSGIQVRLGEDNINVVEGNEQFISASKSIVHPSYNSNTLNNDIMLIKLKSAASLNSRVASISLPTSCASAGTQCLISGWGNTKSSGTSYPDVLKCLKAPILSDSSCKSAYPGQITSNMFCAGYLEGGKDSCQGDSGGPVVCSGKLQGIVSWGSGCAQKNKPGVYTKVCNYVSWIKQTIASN

[3] = Tmax at a dose of 30 mg/kg in rat; assay type: ADME, organism-based; parameters: dose 30 mg/kg; conditions: in vivo
Plasminogen = Plasminogen (Homo sapiens, UniProt P00747); assay: Inhibitory activity against plasmin
Chain of Plasminogen (P00747 97-580 limits assumed): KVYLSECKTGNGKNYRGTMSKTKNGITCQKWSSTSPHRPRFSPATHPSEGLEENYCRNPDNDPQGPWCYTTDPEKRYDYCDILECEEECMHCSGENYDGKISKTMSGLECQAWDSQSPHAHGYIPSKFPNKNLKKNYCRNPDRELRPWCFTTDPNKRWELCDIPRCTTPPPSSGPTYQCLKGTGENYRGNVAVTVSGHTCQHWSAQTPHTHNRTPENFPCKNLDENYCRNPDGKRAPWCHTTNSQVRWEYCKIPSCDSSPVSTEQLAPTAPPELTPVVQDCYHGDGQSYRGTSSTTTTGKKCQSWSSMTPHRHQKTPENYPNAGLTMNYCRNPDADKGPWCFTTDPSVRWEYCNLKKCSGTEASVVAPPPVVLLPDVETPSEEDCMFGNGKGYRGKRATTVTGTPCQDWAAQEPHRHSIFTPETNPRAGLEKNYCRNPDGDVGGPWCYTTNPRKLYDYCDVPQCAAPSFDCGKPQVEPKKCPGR
Chain of Plasminogen (P00747 581-810 limits assumed): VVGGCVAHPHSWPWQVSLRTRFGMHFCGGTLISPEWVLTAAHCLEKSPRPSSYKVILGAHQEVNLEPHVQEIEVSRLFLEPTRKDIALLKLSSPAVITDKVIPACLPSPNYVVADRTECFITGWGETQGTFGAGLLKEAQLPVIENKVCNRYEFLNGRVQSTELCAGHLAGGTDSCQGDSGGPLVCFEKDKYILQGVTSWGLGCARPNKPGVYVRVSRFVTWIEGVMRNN

[4] = Cmax at a dose of […] mg/kg in rat; assay type: ADME, organism-based; conditions: in vivo, 30 mg/kg

SMILES: CN(C(=O)[C@H](CC#Cc1ccc(CN)cc1)NS(=O)(=O)c1ccc2ccccc2c1)C1CCCC1
pKi (Prothrombin): 5.47

SMILES: CNc1ccc(C#CC[C@H](NS(=O)(=O)c2ccc3c(c2)CCCC3)C(=O)N(C)C2CCCC2)cc1
AUC [1]: 4.6 µM·h
pKi (Prothrombin): 8.30
pKi (Coagulation factor X): 5.72
pKi [2]: 3.70
pKi (Serine protease 1): < 4.52
Tmax [3]: 45 min
pKi (Plasminogen): < 3.70
Cmax [4]: 1800 nM

SMILES: CNc1ccc(C#CC[C@H](NS(=O)(=O)c2ccc3cc(OC)ccc3c2)C(=O)N(C)C2CCCC2)cc1
pKi (Prothrombin): 7.57
pKi (Coagulation factor X): 4.85
pKi [2]: < 3.70
pKi (Serine protease 1): < 4.52
pKi (Plasminogen): < 3.70

SMILES: CCNc1ccc(C#CC[C@H](NS(=O)(=O)c2ccc3ccccc3c2)C(=O)N(C)C2CCCC2)cc1
pKi (Prothrombin): 4.31

SMILES: CN(C(=O)[C@H](CC#Cc1cnc[nH]1)NS(=O)(=O)c1ccc2ccccc2c1)C1CCCC1
pKi (Prothrombin): 5.52

SMILES: CNc1ccc(C#CC[C@H](NS(=O)(=O)c2ccc3ccccc3c2)C(=O)N(C)C2CCCC2)cc1
pKi (Prothrombin): 7.72
pKi (Coagulation factor X): 5.06
pKi [2]: < 3.70
pKi (Serine protease 1): 4.43
pKi (Plasminogen): < 3.70

SMILES: CN(C(=O)[C@H](CC#Cc1cccc(N)c1)NS(=O)(=O)c1ccc2ccccc2c1)C1CCCC1
pKi (Prothrombin): 5.66

SMILES: CN(C(=O)[C@H](CC#Cc1cccnc1)NS(=O)(=O)c1ccc2ccccc2c1)C1CCCC1
pKi (Prothrombin): 5.60

SMILES: CN(C(=O)[C@H](CC#Cc1ccncc1)NS(=O)(=O)c1ccc2ccccc2c1)C1CCCC1
pKi (Prothrombin): < 4.70

SMILES: CN(C(=O)[C@H](CC#Cc1cnc(N)nc1)NS(=O)(=O)c1ccc2ccccc2c1)C1CCCC1
pKi (Prothrombin): < 4.70

SMILES: CCCc1ccc(S(=O)(=O)N[C@@H](CC#Cc2ccc(NC)cc2)C(=O)N(C)C2CCCC2)cc1
pKi (Prothrombin): 8.10
pKi (Coagulation factor X): 5.18
pKi [2]: 3.72
pKi (Serine protease 1): < 4.52
pKi (Plasminogen): < 3.70

SMILES: CN(C(=O)[C@H](CC#Cc1cnc(N)s1)NS(=O)(=O)c1ccc2ccccc2c1)C1CCCC1
pKi (Prothrombin): 5.35

SMILES: CNc1ncc(C#CC[C@H](NS(=O)(=O)c2ccc3ccccc3c2)C(=O)N(C)C2CCCC2)cn1
pKi (Prothrombin): 5.46

Continued by rising pKi (Prothrombin), values first:

pKi (Prothrombin): 5.82
SMILES: CN(C(=O)[C@H](CC#Cc1ccc(N)nc1)NS(=O)(=O)c1ccc2ccccc2c1)C1CCCC1

pKi (Prothrombin): 5.82
SMILES: CN(C(=O)[C@H](CC#Cc1ccc(NN)cc1)NS(=O)(=O)c1ccc2ccccc2c1)C1CCCC1

pKi (Prothrombin): 6.52
SMILES: CNc1ccc(C#CC[C@H](NS(=O)(=O)c2ccc3ccccc3c2)C(=O)N(C)C2CCCC2)cn1

pKi (Prothrombin): 6.54
SMILES: CN(C(=O)[C@H](CC#Cc1ccc(N)cc1)NS(=O)(=O)c1ccc2ccccc2c1)C1CCCC1

pKi (Prothrombin): 6.66
SMILES: CN(C(=O)[C@H](CC#Cc1ccc(N)c(N)c1)NS(=O)(=O)c1ccc2ccccc2c1)C1CCCC1

pKi (Prothrombin): 7.40
pKi (Serine protease 1): 4.49
SMILES: CNc1ccc(C#CC[C@H](NS(=O)(=O)c2ccc3ccccc3c2)C(=O)N(C)C2CCCC2)cc1N
